Columns and labels:
[1] = target: Sodium-dependent serotonin transporter; test: Inhibition of [3H]citalopram binding to the serotonin transporter in the cynomolgus (macaca fascicularis) monkey caudate-putamen.; type: tissue-based, Cercopithecidae
[2] = Inhibition of [3H]WIN-35428 binding to the dopamine transporter in the cynomolgus (macaca fascicularis) monkey caudate-putamen.

| SMILES | IC50 [1] [µM] | IC50 [2] [µM] |
| --- | --- | --- |
| COC(=O)C1C2CCC(C[C@@H]1OC(c1ccccc1)c1ccc(I)cc1)N2C (stereo partly drawn) | 9.28 | – |
| COC(=O)C1C2CCC(C[C@@H]1OC(c1ccc(Br)cc1)c1ccc(Br)cc1)N2C (stereo partly drawn) | 2.43 | – |
| COC(=O)C1C2CCC(C[C@@H]1OC(c1ccc(F)cc1)c1ccc(F)cc1)N2CCCc1ccc(Br)cc1 (stereo partly drawn) | 0.234 | – |
| COC(=O)C1C2CCC(C[C@@H]1OC(c1ccc(F)cc1)c1ccc(F)cc1)N2Cc1ccccc1 (stereo partly drawn) | 4.97 | – |
| COC(=O)C1C2CCC(C[C@@H]1OC(c1ccccc1)c1ccccc1)N2C (stereo partly drawn) | 10.1 | – |
| COC(=O)C1C2CCC(C[C@@H]1OC(c1ccccc1)c1ccc(C)cc1)N2C (stereo partly drawn) | 13.2 | – |
| COC(=O)C1C2CCC(C[C@@H]1OC(c1ccc(F)cc1)c1ccc(F)cc1)N2CCCc1ccc(I)cc1 (stereo partly drawn) | 2.2 | 0.119 |
| COC(=O)C1C2CCC(C[C@@H]1OC(c1ccc(F)cc1)c1ccc(F)cc1)N2CCCc1ccccc1 (stereo partly drawn) | 0.0197 | – |
| COC(=O)C1C2CC[C@@H](C[C@@H]1OC(c1ccc(F)cc1)c1ccc(F)cc1)N2C (stereo partly drawn) | 3.53 | – |
| COC(=O)C1C2CCC(C[C@@H]1OC1c3ccccc3-c3ccccc31)N2C (stereo partly drawn) | 3.44 | 6.03 |
| COC(=O)C1C2CCC(C[C@@H]1OC(c1ccc(Cl)cc1)c1ccc(Cl)cc1)N2C (stereo partly drawn) | 3.36 | 0.0914 |
| COC(=O)C1C2CCC(C[C@@H]1OC(c1ccccc1)c1ccc(Cl)cc1)N2C (stereo partly drawn) | 5.96 | – |
| COC(=O)C1C2CCC(C[C@@H]1OC(c1ccccc1)c1ccc(F)cc1)N2C (stereo partly drawn) | 4.93 | 0.0132 |
| COC(=O)C1C2CCC(C[C@@H]1OC(c1ccc(F)cc1)c1ccc(F)cc1)N2CCCCCc1ccccc1 (stereo partly drawn) | 0.55 | 0.099 |
| COC(=O)C1C2CCC(C[C@@H]1OC(c1ccc(Br)cc1)c1ccc(I)cc1)N2C (stereo partly drawn) | 4.39 | 0.389 |
| CCC(O[C@H]1CC2CCC(C1C(=O)OC)N2C)c1ccccc1 (stereo partly drawn) | 21 | – |
| COC(=O)C1C2CCC(C[C@@H]1OC(c1ccccc1)c1ccc(Br)cc1)N2C (stereo partly drawn) | 5.77 | 0.024 |
| COC(=O)C1C2CCC(C[C@@H]1OC(c1ccc(I)cc1)c1ccc(I)cc1)N2C (stereo partly drawn) | 8.55 | – |
| COC(=O)C1C2CCC(C[C@@H]1OC(c1ccc(C)cc1)c1ccc(C)cc1)N2C (stereo partly drawn) | 9.8 | 0.24 |
| CN1C2CCC1CC(OC(c1ccc(F)cc1)c1ccc(F)cc1)C2 (stereo not drawn) [DIFLUOROBENZTROPINE] | 5.34 | – |

Source: ChEMBL document CHEMBL1129654, “2-Carbomethoxy-3-(diarylmethoxy)-1 alpha H, 5 alpha H-tropane analogs: synthesis and inhibition of binding at the dopamine transporter and comparison with piperazines of the GBR series” (J Med Chem, 1996)
